Reference: ChEMBL document CHEMBL4616727, “Characterization of Conformationally Constrained Benzanilide Scaffolds for Potent and Selective HDAC8 Targeting” (J Med Chem, 2020)

Legend:
[1] = MRT in CD1 mouse at 100 mg/kg, ip measured after 5 mins to 12 hrs by LC-MS/MS analysis; assay type: ADME, organism-based; details: in vivo
[2] = Cmax in CD1 mouse at 100 mg/kg, ip measured after 5 mins to 12 hrs by LC-MS/MS analysis; assay type: ADME, organism-based; design: dose 100 mg/kg, route intraperitoneal; details: in vivo
[3] = Half life in CD1 mouse at 100 mg/kg, ip measured after 5 mins to 12 hrs by LC-MS/MS analysis; assay type: ADME, organism-based; details: in vivo
[4] = AUClast in CD1 mouse at 100 mg/kg, ip measured after 5 mins to 12 hrs by LC-MS/MS analysis; assay type: ADME, organism-based; design: time upper 12 hr, time lower 0.083 hr, dose 100 mg/kg, route intraperitoneal; details: in vivo
[5] = Effective permeability at pH 7.4 by PAMPA method; assay type: ADME
[6] = Effective permeability assessed as drug recovery at pH 7.4 by PAMPA method; assay type: ADME; details: read-out: Drug recovery
BE(2)-C = test: Inhibition of colony formation in human BE(2)-C cells
Histone deacetylase 4 = Histone deacetylase 4 (Homo sapiens, UniProt P56524); test: Inhibition of C-terminal GST-tagged human HDAC4 (101 to 1084 resides) expressed in baculovirus expression system using FAM-RHKK(TF-Ac)-NH2 substrate incubated for […] by EMSA method
Chain of Histone deacetylase 4 (P56524 whole entry): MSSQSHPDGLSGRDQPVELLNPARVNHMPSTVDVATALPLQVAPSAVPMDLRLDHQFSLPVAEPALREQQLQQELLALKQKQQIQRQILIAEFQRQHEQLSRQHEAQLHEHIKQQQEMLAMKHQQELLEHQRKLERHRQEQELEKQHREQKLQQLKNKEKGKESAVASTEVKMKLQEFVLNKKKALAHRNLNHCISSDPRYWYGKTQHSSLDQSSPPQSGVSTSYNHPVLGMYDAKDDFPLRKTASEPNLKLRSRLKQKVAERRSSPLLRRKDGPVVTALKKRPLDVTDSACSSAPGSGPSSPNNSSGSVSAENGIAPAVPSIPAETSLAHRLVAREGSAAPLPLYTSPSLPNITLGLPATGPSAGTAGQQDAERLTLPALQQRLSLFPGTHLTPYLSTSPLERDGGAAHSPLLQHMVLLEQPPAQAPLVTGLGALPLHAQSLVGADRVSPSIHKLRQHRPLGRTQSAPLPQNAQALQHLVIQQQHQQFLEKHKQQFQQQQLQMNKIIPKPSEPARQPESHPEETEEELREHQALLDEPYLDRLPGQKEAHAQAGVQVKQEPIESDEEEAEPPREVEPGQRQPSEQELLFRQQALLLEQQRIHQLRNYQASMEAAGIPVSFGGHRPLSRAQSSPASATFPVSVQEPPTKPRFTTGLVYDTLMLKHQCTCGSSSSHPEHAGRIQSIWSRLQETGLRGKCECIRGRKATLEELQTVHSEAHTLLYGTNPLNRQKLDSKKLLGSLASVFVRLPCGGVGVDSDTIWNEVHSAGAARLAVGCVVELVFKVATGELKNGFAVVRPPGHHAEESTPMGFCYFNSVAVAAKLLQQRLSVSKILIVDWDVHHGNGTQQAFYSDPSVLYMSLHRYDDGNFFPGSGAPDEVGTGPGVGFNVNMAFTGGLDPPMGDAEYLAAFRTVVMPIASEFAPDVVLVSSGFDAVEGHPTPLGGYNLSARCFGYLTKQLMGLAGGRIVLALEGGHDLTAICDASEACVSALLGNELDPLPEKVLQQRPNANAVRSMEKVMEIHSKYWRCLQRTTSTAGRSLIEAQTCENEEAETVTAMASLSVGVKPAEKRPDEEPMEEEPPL

Histone deacetylase 9 = Histone deacetylase 9 (Homo sapiens, UniProt Q9UKV0); test: Inhibition of C-terminal His-tagged human HDAC9 (604 to 1066residues) expressed in baculovirus expression system using […] substrate incubated for 3 hrs by EMSA method
Chain of Histone deacetylase 9 (Q9UKV0 whole entry): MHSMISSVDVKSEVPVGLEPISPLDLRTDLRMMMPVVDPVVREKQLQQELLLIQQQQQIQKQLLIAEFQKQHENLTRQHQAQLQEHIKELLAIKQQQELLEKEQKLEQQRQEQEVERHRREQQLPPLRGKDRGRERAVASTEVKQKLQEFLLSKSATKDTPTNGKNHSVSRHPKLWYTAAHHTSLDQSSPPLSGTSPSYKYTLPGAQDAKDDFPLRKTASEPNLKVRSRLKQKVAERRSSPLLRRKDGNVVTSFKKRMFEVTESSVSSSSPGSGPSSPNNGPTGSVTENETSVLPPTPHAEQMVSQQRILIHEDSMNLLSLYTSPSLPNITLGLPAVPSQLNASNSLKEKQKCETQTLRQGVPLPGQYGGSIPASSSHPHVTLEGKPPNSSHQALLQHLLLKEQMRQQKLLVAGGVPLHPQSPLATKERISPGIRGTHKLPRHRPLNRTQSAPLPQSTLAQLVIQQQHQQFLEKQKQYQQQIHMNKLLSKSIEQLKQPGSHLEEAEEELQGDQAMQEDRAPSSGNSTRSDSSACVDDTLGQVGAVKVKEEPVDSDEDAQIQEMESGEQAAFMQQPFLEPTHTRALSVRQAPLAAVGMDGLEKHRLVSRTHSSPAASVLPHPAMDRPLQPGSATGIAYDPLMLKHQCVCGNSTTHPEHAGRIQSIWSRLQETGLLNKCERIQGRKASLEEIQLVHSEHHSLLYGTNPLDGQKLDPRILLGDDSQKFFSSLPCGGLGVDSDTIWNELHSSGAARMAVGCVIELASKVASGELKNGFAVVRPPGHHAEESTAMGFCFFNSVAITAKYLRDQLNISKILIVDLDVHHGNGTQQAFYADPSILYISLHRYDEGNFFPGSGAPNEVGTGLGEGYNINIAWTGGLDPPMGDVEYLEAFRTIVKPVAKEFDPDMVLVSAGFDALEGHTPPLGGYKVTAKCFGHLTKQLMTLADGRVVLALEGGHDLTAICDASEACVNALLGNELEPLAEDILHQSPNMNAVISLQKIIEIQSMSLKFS

Histone deacetylase 5 = Histone deacetylase 5 (Homo sapiens, UniProt Q9UQL6); test: Inhibition of N-terminal GST-tagged full length human HDAC5 expressed in baculovirus expression system using FAM-RHKK(TF-Ac)-NH2 substrate incubated for 2 hrs by EMSA method
Chain of Histone deacetylase 5 (Q9UQL6 whole entry): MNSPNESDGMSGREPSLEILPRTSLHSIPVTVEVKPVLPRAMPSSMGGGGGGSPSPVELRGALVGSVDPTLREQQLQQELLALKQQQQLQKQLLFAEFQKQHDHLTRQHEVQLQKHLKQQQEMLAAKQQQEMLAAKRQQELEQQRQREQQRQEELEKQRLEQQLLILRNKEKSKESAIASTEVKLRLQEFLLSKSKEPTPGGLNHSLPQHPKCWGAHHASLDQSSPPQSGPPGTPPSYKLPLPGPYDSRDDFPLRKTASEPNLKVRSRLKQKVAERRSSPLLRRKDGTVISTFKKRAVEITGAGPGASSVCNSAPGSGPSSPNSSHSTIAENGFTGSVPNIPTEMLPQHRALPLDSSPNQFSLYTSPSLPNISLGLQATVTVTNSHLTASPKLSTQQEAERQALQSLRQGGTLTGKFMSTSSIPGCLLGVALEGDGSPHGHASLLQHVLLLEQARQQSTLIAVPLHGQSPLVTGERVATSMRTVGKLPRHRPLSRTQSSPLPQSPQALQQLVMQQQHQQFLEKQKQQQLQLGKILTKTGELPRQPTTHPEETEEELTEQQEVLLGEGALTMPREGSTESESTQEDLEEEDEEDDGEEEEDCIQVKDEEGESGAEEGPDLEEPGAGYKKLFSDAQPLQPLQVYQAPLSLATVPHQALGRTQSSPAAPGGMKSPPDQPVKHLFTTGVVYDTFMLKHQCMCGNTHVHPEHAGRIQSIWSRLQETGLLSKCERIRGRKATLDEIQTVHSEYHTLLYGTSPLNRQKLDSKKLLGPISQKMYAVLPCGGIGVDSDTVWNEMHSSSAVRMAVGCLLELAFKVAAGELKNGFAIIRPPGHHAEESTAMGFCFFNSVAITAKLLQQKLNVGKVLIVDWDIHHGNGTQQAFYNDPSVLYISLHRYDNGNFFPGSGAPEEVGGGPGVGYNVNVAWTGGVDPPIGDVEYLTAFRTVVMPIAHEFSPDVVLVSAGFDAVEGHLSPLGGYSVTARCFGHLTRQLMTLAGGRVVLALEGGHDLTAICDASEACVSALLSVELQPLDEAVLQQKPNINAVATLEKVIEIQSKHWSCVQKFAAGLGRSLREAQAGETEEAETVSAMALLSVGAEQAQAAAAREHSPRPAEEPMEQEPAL

[7] = biological target: T1, Polyamine deacetylase HDAC10 (Homo sapiens, UniProt Q969S8); test: Inhibition of N-terminal His-tagged full length human HDAC10 expressed in baculovirus expression system using FAM-TSRHK(Ac)KL-NH2 substrate incubated for 17 hrs by EMSA method
T1 sequence (Q969S8 whole entry): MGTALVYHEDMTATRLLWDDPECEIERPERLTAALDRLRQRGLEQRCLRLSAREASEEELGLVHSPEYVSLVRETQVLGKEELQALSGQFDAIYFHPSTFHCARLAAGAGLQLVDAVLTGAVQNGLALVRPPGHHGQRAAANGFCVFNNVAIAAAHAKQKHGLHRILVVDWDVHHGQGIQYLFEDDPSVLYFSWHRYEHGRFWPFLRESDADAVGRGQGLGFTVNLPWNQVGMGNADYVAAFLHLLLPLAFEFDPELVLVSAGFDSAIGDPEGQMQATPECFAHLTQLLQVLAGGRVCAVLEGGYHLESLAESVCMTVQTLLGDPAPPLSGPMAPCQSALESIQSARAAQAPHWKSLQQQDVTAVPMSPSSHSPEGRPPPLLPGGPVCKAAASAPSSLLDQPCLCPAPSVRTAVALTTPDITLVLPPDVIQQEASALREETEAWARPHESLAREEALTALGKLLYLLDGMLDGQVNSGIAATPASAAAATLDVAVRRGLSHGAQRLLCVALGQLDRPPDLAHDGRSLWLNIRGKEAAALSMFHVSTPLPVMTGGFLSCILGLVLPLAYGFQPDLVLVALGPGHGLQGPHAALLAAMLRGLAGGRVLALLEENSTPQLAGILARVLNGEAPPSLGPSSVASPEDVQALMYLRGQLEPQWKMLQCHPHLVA

Histone deacetylase 7 = biological target: T2, Histone deacetylase 7 (Homo sapiens, UniProt Q8WUI4); test: Inhibition of N-terminal GST-tagged human HDAC7 (518 to end residues) expressed in baculovirus expression system using FAM-RHKK(TF-Ac)-NH2 substrate incubated for 3 hrs by EMSA method
T2 sequence (Q8WUI4 whole entry): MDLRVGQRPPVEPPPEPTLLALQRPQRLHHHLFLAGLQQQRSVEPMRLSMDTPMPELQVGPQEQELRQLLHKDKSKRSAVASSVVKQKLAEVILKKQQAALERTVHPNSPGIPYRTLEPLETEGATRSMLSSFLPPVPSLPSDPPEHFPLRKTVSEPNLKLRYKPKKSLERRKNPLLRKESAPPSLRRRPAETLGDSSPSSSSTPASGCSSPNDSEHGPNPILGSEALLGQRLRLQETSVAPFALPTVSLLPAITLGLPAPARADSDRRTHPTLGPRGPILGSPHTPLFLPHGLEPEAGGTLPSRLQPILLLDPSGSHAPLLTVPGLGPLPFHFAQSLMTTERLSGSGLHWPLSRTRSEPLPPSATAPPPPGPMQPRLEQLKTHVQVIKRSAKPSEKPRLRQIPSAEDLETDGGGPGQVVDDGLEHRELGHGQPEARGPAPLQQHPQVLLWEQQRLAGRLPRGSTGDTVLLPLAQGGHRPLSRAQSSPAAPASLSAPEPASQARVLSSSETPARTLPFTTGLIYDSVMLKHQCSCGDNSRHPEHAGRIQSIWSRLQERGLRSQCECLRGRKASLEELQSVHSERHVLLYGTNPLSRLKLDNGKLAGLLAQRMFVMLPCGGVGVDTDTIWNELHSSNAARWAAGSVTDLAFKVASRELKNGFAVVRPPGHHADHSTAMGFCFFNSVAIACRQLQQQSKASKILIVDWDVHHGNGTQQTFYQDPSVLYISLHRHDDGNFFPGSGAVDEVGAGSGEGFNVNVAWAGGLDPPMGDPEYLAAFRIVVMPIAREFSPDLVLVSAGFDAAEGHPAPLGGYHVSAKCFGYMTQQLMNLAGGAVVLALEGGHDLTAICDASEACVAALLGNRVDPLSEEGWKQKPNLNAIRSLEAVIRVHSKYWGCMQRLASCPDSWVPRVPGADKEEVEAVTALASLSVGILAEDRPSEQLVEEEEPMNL

MRT [1] [h]	Cmax [2] [µM]	half-life [3] [h]	AUC(0-t) [4] [ng·h/mL]	log(permeability) [5]	recovery [6] [%]	IC50 (BE(2)-C) [µM]	IC50 (Histone deacetylase 4) [µM]	IC50 (Histone deacetylase 9) [µM]	IC50 (Histone deacetylase 5) [µM]	IC50 [7] [µM]	IC50 (Histone deacetylase 7) [µM]	SMILES
0.45	57.6	3.3	6950	–	–	–	–	–	–	–	–	COc1ccc(Cn2ccc3ccc(C(=O)NO)cc32)cc1
2.77	–	–	–	-5.7	102	2.1	–	–	–	–	–	CC(C)(C)c1cccc(C(=O)N(CC2CC2)c2ccc(C(=O)NO)cc2)c1
–	–	–	–	-5.42	95.4	–	> 10	> 10	> 10	> 10	> 10	CC(C)N(C(=O)c1cc(C(F)(F)F)cc(C(F)(F)F)c1)c1ccc(C(=O)NO)cc1
3	–	–	–	-5.8	102	–	–	–	–	–	–	CC(C)N(C(=O)c1cccc(OC(F)(F)F)c1)c1ccc(C(=O)NO)cc1
